One assay addresses CabPB (Streptococcus mutans, UniProt Q8DSR3). As to the kind of experiment: DRaCALA, […]-labelled c-di-AMP on nitrocellulose. The class given is binding.
Another assay deals with CabPA (Streptococcus mutans, UniProt Q8DT33). Briefly: DRaCALA, […]-labelled c-di-AMP on nitrocellulose. The class given is binding.

Take `Nc1ncnc2c1ncn2[C@@H]1O[C@@H]2COP(=O)(O)O[C@H]3[C@@H](O)[C@H](n4cnc5c(N)ncnc54)O[C@@H]3COP(=O)(O)O[C@H]2[C@H]1O` [c-di-AMP]: the values for the Kd at CabPB and on CabPA were 1.2 ± 0.2 µM and 7.8 ± 0.3 µM, respectively.

Source of the values: paper PMC5003771 (Molecular microbiology, 2015).
